Like-named read-outs stand apart in the source and are kept apart here.
Legend:
HSV-1 (KOS strain) = experiment: Viral plaque number reduction assay, HSV-1 KOS strain; type: cell-based, Herpes Simplex Virus type 1; conditions: for IC50: read-out: IC50 (KOS Strain)
Procedure: (§1) Firstly, the cytotoxicity of compounds 1–6 was determined by SRB assay as described above. HSV-1 (KOS and 29R strains, which are sensitive and resistant to acyclovir, respectively, Faculty of Pharmacy, University of Rennes I, Rennes, France) were propagated in the permissive Vero cells. Viral stocks were titrated as based on plaque-forming units (PFU), counted by plaque assay as previously described, and stored at −80 °C until used. To perform the anti-HSV-1 screening, the viral plaque number reduction assay was used as described previously by Boff et al.. Briefly, confluent Vero cell monolayers (2.5 × 10^5 cells per well) were infected with approximately 100 PFU of each virus strain for 1 h at 37 °C. Treatments were performed by adding non-cytotoxic concentrations of the compounds after viral infection (post-infection treatment). Cells were then washed with phosphate-buffered saline (PBS) and overlaid with MEM containing 1.5% carboxymethylcellulose (CMC; Sigma-Aldrich) in the presence or absence of different concentrations of the compounds and incubated for 48 h. Cells were fixed and stained with naphthol blue-black (Sigma-Aldrich), and viral plaques were counted by using a stereomicroscope. The results were presented as percentages of viral inhibition or by IC50 values, which are defined as the concentration of each sample that inhibited viral plaque formation by 50% (IC50) when compared to untreated controls. The ratio between CC50 and IC50 values was calculated to obtain the selectivity index (SI) of each sample. Acyclovir (ACV, Sigma-Aldrich) was used as a positive control for HSV-1 (KOS strain) and as a negative control for HSV-1 (29-R strain) replication.

in vitro [1] = type: cell-based; conditions: African green monkey
Procedure: (§2) Non-small cells of human lung cancer cells (A549; ATCC: CCL 195) and African Green monkey kidney fibroblasts (Vero; ATCC: CCL81) were grown in Eagle’s minimum essential medium (MEM; Cultilab, Campinas, Brazil) supplemented with 1% glutamine (Gibco, Carlsbad, CA, USA) and 10% fetal bovine serum (FBS; Gibco, Carlsbad, CA, USA), and maintained at 37 °C and 5% CO2 in a humidified atmosphere. The antiproliferative screening was performed by sulforhodamine B assay (SRB). In summary, A549 cells were seeded into 96-well plates (2.5 × 10^4 cells per well) and exposed to different concentrations of compounds 1–6 for 48 h. Paclitaxel (PAC, Sigma-Aldrich, St. Louis, MO, USA) was used as a positive control. After incubation, 10% trichloroacetic acid (TCA) was added to each well to fix the cells, and then the cells were washed and stained with SRB. […] The ratio between CC50 and IC50 values was calculated to obtain the selectivity index (SI) of each sample.
as §1

[2] = tested on: non-small cells of human lung cancer (A549); experiment: in vitro; type: cell-based; conditions: 48 h of treatment, sulforhodamine B assay, mean of three independent experiments, read-out: IC50 A549 Cell Line (Confidence Interval 95%)
Procedure: as §2

in vitro [3] = type: cell-based; conditions: African green monkey (Vero) and human (A549), Vero cells (CC50) and A549 cells (IC50); CC50 Vero / IC50 A549; read-out: SI (selective index = CC50/IC50)
Procedure: as §2

HSV-1 (29R strain) = experiment: Viral plaque number reduction assay, HSV-1 29R strain; type: cell-based, Herpes Simplex Virus type 1; conditions: for inhibition at 100 µg/mL: tested concentration 100 µg/mL
Procedure: as §1

Vero cell line = experiment: in vitro; type: cell-based; conditions: African green monkey, 48 h
Procedure: as §2, §1

[4] = Human alphaherpesvirus 1, 48 h, tested concentration 100 µg/mL, 48 h, post-infection treatment, read-out: % HSV-1 Inhibition ± SD, KOS Strain
[5] = Human alphaherpesvirus 1, 48 h, acyclovir-resistant strain, read-out: % HSV-1 Inhibition ± SD, 29R Strain

| SMILES | inhibition at 100 µg/mL (HSV-1 (KOS strain); [4]) | CC50 at 48 h (in vitro [1]) | IC50 [2] | IC50 ([2]; Homo sapiens, A549, 48 h) | selectivity ratio at 48 h (in vitro [3]) | inhibition at 100 µg/mL (HSV-1 (29R strain); [5]) | inhibition at 100 µg/mL (HSV-1 (KOS strain); Human alphaherpesvirus 1, 48 h, read-out: % HSV-1 Inhibition ± SD, KOS Strain, tested concentration 100 µg/mL, 48 h, post-infection treatment) | IC50 (HSV-1 (KOS strain); Human alphaherpesvirus 1, 48 h) | % HSV-1 Inhibition ± SD, KOS Strain (HSV-1 (KOS strain); tested concentration 100 µg/mL, 48 h, post-infection treatment) | CC50 (Vero cell line) | IC50 (HSV-1 (29R strain); Human alphaherpesvirus 1, 48 h, concentration ± SD that inhibited 50% of viral replication, unit inferred) | inhibition at 50 µg/mL (HSV-1 (KOS strain); Human alphaherpesvirus 1, 48 h, tested concentration 50 µg/mL, 48 h, post-infection treatment, read-out: % HSV-1 Inhibition ± SD, KOS Strain) | % HSV-1 Inhibition ± SD, KOS Strain (HSV-1 (KOS strain); tested concentration 50 µg/mL, 48 h, post-infection treatment) | inhibition at 50 µg/mL (HSV-1 (29R strain); Human alphaherpesvirus 1, 48 h, tested concentration 50 µg/mL, acyclovir-resistant strain, read-out: % HSV-1 Inhibition ± SD, 29R Strain) | inhibition at 25 µg/mL (HSV-1 (KOS strain); Human alphaherpesvirus 1, 48 h, tested concentration 25 µg/mL, 48 h, post-infection treatment, read-out: % HSV-1 Inhibition ± SD, KOS Strain) | inhibition at 25 µg/mL (HSV-1 (29R strain); Human alphaherpesvirus 1, 48 h, tested concentration 25 µg/mL, acyclovir-resistant strain, read-out: % HSV-1 Inhibition ± SD, 29R Strain) |
| --- | --- | --- | --- | --- | --- | --- | --- | --- | --- | --- | --- | --- | --- | --- | --- | --- |
| C[C@H]1C[C@@H](O)[C@]23C(=CCC[C@@H]2[C@@]1(C)CCc1ccoc1)CO[C@H]3O [Compound 1, raspailol] | 34.6 ± 7.36% | 148 µM | 24.1 µM | < 25 µM | 6.14 | 0% | – | – | – | – | – | – | – | – | – | – |
| C=C1C(C)=CCC[C@@H]1[C@@](C)(CCc1ccoc1)[C@@H](C)CC(=O)OC [Compound 2, raspadiene] | – | > 250 µM | – | 100 µM | > 2.49 | 74% | 83% | 81.4 ± 9.82 µM | 83.41 ± 16.12% | > 250 µM | 74.9 ± 7.3 µM | – | – | – | – | – |
| CC1=CCC[C@H]2C1(C(=O)O)[C@H](O)C[C@H](C)[C@]2(C)CCc1ccoc1 (stereo partly drawn) [Compound 3, kerlinic acid] | 24.4 ± 4.04% | 182 µM | – | 66.2 µM | 2.74 | 32 ± 6.12% | – | – | – | – | – | – | – | – | – | – |
| COC(=O)[C@@]12C(C)=CCC[C@@H]1[C@@](C)(CCc1ccoc1)[C@@H](C)C[C@H]2O [Compound 4, kerlinic acid methyl ester] | – | 98.4 µM | 20.6 µM | < 25 µM | 4.77 | – | – | 52.4 ± 4.78 µM | – | – | – | 50% | 50.23 ± 8.24% | 14.4 ± 5.46% | – | – |
| CC1=CCC[C@@H]2[C@@](C)(CCc3ccoc3)[C@@H](C)CC[C@]12C [Compound 5, annonene] | 15.2 ± 4.65% | > 250 µM | – | 144 µM | > 1.74 | 30.9 ± 9.07% | – | – | – | – | – | – | – | – | – | – |
| CC1=CCC[C@@H]2[C@@](C)(CCc3ccoc3)[C@@H](C)C[C@@H](O)[C@]12C [Compound 6, 6-hydroxyannonene] | – | 40.8 µM | 24.5 µM | < 25 µM | 1.66 | – | – | – | – | – | – | – | – | – | 0% | 0% |

Reference: publication PMC6356680, “Clerodane Diterpenes from the Marine Sponge Raspailia bouryesnaultae Collected in South Brazil” (Marine Drugs, 2019)
